For eleven molecules, Kd and IC50 results are on record in patent US20250059188A1, “ARYLSULPHONAMIDE COMPOUNDS” (Anaxis Pharma Pty Ltd, priority 2021, published 2025).

Assay [1] concerns the target mouse MLKL (full length) (Mus musculus (Mouse), UniProt Q9D2Y4). In words: KINOMEscan binding assay, mouse MLKL (full length). The conditions noted are these: equilibrium dissociation constant. Here is the method: Binding affinity of the test compounds for human MLKL (full length), mouse MLKL (full length), human RIPK1 and human RIPK3 was determined using the KINOMEscan™ technology developed by DiscoverX (USA; http://www.discoverx.com). The assay was conducted according to manufacturer instructions.
Kinase assays. For most assays, kinase-tagged T7 phage strains were grown in parallel in 24-well blocks in an E. coli host derived from the BL21 strain. E. coli were grown to log-phase and infected with T7 phage from a frozen stock (multiplicity of infection=0.4) and incubated with shaking at 32° C. until lysis (90-150 minutes). The lysates were centrifuged (6,000×g) and filtered (0.2 μm) to remove cell debris. The remaining kinases were produced in HEK-293 cells and subsequently tagged with DNA for qPCR detection. […] The liganded beads were blocked with excess biotin and washed with blocking buffer (SeaBlock (Pierce), 1% BSA, 0.05% Tween 20, 1 mM DTT) to remove unbound ligand and to reduce non-specific phage binding. […] All reactions were performed in polypropylene 384-well plates in a final volume of 20 μL. […] The kinase concentration in the eluates was measured by qPCR.
An 11-point 3-fold serial dilution of each test compound was prepared in 100% DMSO at 100× final test concentration and subsequently diluted to 1× in the assay (final DMSO concentration=1%). Most Kos were determined using a compound top concentration=30,000 nM.
KD for each test compound was calculated with a standard dose-response curve using the Hill equation (equation (1)): […]
The Hill Slope was set to −1.
Curves were fitted using a non-linear least square fit with the Levenberg-Marquardt algorithm.

Assay [2] addresses human MLKL (full length) (Homo sapiens (Human), UniProt Q8NB16). In words: KINOMEscan binding assay, human MLKL (full length). The conditions noted are these: equilibrium dissociation constant. Summed up: (§1)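 Binding constants were derived by fitting qPCR-quantified bead-retained kinase against compound concentration to the Hill equation, slope set at −1. Compound series were 3-fold over 11 points with 1% DMSO; most top concentrations were 30,000 nM. Kinases were T7-phage-tagged or HEK-293-produced with DNA tags.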

Assay [3] concerns U937 human histiocytic leukemia cell line. In words: Inhibition of TSQ induced necroptosis in U937 cells (CellTitre-Glo). The conditions noted are these: Homo sapiens, U-937, TSQ cocktail (TNF, Smac mimetic, Q-VD-OPh), 48 hours, read-out: Inhibition of TSQ-induced necroptosis (IC50 cell-based assay). Summed up:
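U937 cells (20000/well) treated with compound (10-point, 1:3 from 36 μM, 0.3% DMSO) plus TSQ cocktail (hTNF-Fc 100 ng/ml, Smac mimetic 500 nM, Q-VD-OPh 10 μM), 48 h at 37 °C. Viability by CellTiter-Glo luminescence; IC50 from 4-parameter logistic fit. Counter screen: same cells without TSQ.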

Assay [4] deals with U937 cells. In words: Counter screen: U937 cell viability without TSQ cocktail (off-target effect). Details: species or system human. Particulars: Homo sapiens, U-937, compound without TSQ cocktail, read-out: Off-target effect (IC50 cell-based assay). Put shortly: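 U937 cells (20,000/well) exposed to compound (10-point 1:3 titration from 36 μM, 0.3% DMSO) without TSQ cocktail for 48 h at 37 °C/5% CO2. Viability read as ATP by CellTiter-Glo luminescence; IC50 from 4-parameter logistic fit.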
Background: The purpose of a counterscreen is to sort out artefacts and off-target activity.

Assay [5] has as its target human RIPK3 (Homo sapiens (Human), UniProt Q9Y572). The assay can be described thus: KINOMEscan binding assay, human RIPK3. Particulars: equilibrium dissociation constant. Summed up: as §1
Assay [6] concerns the target human RIPK1 (Homo sapiens (Human), UniProt Q13546). The assay can be described thus: KINOMEscan binding assay, human RIPK1. The conditions noted are these: equilibrium dissociation constant. Summed up: as §1

What is called Kd is the free concentration of one partner at which half of the binding sites on the other are occupied at equilibrium, for simple one-to-one binding. High values mean lower affinity, low ones higher affinity. One may read the IC50 as the concentration that inhibits the measured activity by half.

human RIPK1, sequence (Q13546 whole entry): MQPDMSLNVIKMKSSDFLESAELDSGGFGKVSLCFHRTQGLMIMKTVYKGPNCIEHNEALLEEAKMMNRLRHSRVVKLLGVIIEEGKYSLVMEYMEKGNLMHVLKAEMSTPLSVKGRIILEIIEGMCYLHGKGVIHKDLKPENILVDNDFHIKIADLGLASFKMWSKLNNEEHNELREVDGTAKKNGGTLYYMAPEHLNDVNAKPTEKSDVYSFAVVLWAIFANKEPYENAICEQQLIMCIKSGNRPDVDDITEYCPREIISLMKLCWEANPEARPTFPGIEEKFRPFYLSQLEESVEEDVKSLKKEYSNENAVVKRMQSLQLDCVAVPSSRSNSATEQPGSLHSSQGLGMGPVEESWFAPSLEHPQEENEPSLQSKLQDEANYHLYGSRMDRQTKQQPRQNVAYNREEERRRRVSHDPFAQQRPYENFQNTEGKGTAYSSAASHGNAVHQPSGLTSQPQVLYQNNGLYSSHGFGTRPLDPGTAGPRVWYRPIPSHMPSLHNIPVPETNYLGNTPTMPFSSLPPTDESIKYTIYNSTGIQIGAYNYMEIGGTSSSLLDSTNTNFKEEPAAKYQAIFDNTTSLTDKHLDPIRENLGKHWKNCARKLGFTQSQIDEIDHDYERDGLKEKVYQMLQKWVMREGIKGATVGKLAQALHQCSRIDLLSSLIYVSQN
mouse MLKL (full length), sequence (Q9D2Y4 whole entry): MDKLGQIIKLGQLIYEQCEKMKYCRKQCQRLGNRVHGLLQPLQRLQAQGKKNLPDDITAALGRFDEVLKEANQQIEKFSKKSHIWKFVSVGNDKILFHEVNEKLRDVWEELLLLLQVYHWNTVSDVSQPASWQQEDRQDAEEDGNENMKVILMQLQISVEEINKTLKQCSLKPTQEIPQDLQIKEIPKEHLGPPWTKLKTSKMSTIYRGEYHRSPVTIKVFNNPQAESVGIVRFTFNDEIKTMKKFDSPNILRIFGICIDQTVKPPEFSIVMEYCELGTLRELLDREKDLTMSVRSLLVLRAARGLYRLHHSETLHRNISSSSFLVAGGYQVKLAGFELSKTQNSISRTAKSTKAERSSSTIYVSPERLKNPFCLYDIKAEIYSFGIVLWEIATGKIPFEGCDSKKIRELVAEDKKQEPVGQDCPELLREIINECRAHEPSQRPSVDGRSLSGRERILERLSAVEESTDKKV
human RIPK3, sequence (Q9Y572 whole entry): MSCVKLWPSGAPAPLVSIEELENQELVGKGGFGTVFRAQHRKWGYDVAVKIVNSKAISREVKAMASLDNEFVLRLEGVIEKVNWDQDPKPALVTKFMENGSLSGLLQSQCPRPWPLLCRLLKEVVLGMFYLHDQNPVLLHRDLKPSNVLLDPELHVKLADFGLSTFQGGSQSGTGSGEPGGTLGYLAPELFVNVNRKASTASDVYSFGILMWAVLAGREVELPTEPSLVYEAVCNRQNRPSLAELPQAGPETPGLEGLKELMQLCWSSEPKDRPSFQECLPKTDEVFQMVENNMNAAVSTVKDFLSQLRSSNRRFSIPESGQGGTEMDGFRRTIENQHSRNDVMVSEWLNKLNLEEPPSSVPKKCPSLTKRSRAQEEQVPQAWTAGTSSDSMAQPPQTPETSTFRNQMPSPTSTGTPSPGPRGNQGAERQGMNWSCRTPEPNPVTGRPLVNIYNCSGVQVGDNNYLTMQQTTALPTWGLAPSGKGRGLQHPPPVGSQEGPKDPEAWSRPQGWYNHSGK
human MLKL (full length), sequence (Q8NB16 whole entry): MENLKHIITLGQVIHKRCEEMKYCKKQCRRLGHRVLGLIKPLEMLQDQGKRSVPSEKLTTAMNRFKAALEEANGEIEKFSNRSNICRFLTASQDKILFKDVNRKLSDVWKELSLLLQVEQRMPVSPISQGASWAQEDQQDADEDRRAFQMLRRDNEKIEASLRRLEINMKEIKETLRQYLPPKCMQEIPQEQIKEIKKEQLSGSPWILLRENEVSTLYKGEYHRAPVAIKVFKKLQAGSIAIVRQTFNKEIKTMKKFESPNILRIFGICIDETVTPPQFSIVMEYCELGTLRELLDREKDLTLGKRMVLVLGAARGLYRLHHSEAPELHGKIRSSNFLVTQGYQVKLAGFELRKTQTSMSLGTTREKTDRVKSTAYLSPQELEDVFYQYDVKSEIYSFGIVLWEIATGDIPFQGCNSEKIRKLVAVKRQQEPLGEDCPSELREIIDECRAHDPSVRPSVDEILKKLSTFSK

`C[C@H](Oc1cc(-c2coc3c(-c4cnn(C5CCOCC5)c4)cnc(N)c23)ccc1NS(=O)(=O)C(F)F)c1ccc(F)cc1` [Compound 7, (S)-N-(4-(4-amino-7-(1-(tetrahydro-2H-pyran-4-yl)-1H-pyrazol-4-yl)furo[3,2-c]pyridin-3-yl)-2-(1-(4-fluorophenyl)ethoxy)phenyl)-1,1-difluoromethanesulfonamide]: the Kd in assay [1] is less than 1 nM; in assay [2], 1 to 100 nM; in assay [5], greater than 10000 nM; in assay [6] it was greater than 10000 nM. The figures for the IC50 in assay [3] and in assay [4] were 10 to 1000 nM and 1000 to 10000 nM, respectively.

For the molecule `C[C@H](Oc1cc(-c2coc3c(-c4cnn(CCO)c4)cnc(N)c23)ccc1NS(=O)(=O)C(F)F)c1ccc(F)cc1` [Compound 9, (S)-N-(4-(4-amino-7-(1-(2-hydroxyethyl)-1H-pyrazol-4-yl)furo[3,2-c]pyridin-3-yl)-2-(1-(4-fluorophenyl)ethoxy)phenyl)-1,1-difluoromethanesulfonamide], the Kd is 1 to 100 nM in assay [1], less than 1 nM in assay [2], greater than 10000 nM in assay [5] and greater than 10000 nM in assay [6]. For the same molecule, the IC50 lay in the range of 10 to 1000 nM in assay [3] and 1000 to 10000 nM in assay [4].

In the case of `C[C@H](Oc1cc(-c2nn(C)c3c(-c4cnn(CCO)c4)cnc(N)c23)ccc1NS(=O)(=O)C(F)F)c1ccc(F)cc1` [Compound 15, (S)-N-(4-(4-amino-7-(1-(2-hydroxyethyl)-1H-pyrazol-4-yl)-1-methyl-1H-pyrazolo[4,3-c]pyridin-3-yl)-2-(1-(4-fluorophenyl)ethoxy)phenyl)-1,1-difluoromethanesulfonamide], the Kd in assay [1] was less than 1 nM; in assay [2], less than 1 nM; in assay [5] it was greater than 10000 nM; in assay [6] it was greater than 10000 nM. For the same molecule, the IC50 in assay [3] was 10 to 1000 nM; in assay [4], greater than 10000 nM.

Turning to `C[C@H](Oc1cc(-c2nn(C)c3c(-c4ccncc4)cnc(N)c23)ccc1NS(=O)(=O)C(F)F)c1ccc(F)cc1` [Compound 18, (S)-N-(4-(4-amino-1-methyl-7-(pyridin-4-yl)-1H-pyrazolo[4,3-c]pyridin-3-yl)-2-(1-(4-fluorophenyl)ethoxy)phenyl)-1,1-difluoromethanesulfonamide], the Kd in assay [1] is 1 to 100 nM; in assay [2], less than 1 nM; in assay [5] it was greater than 10000 nM; in assay [6], greater than 10000 nM. Also, the 50% inhibitory concentration (IC50) in assay [3] was 10 to 1000 nM; in assay [4] it was greater than 10000 nM.

Regarding `C[C@H](Oc1cc(-c2nn(C)c3c(-c4cnn(C)c4)cnc(N)c23)ccc1NS(=O)(=O)C(F)F)c1ccc(F)cc1` [Compound 20, (S)-N-(4-(4-amino-1-methyl-7-(1-methyl-1H-pyrazol-4-yl)-1H-pyrazolo[4,3-c]pyridin-3-yl)-2-(1-(4-fluorophenyl)ethoxy)phenyl)-1,1-difluoromethanesulfonamide], the Kd in assay [1] was less than 1 nM; in assay [2] it was less than 1 nM; in assay [5], greater than 10000 nM; in assay [6], greater than 10000 nM. Further, the IC50 in assay [3] was 10 to 1000 nM; in assay [4], greater than 10000 nM.

Consider `C[C@H](Oc1cc(-c2nn(C)c3c(-c4cnn(CCN5CCN(C)CC5)c4)cnc(N)c23)ccc1NS(=O)(=O)C(F)F)c1ccc(F)cc1` [Compound 60, (S)-N-(4-(4-amino-1-methyl-7-(1-(2-(4-methylpiperazin-1-yl)ethyl)-1H-pyrazol-4-yl)-1H-pyrazolo[4,3-c]pyridin-3-yl)-2-(1-(4-fluorophenyl)ethoxy)phenyl)-1,1-difluoromethanesulfonamide], for which the Kd was less than 1 nM in assay [1], 1 to 100 nM in assay [2], greater than 10000 nM in assay [5] and greater than 10000 nM in assay [6]. Moreover, the half-inhibitory concentration (IC50) in assay [3] was 10 to 1000 nM; in assay [4], greater than 10000 nM.

In the case of `C[C@H](Oc1cc(-c2nn(C)c3c(-c4cnn(C5CCN(CC(F)(F)F)CC5)c4)cnc(N)c23)ccc1NS(=O)(=O)C(F)F)c1ccc(F)cc1` [Compound 61, (S)-N-(4-(4-amino-1-methyl-7-(1-(1-(2,2,2-trifluoroethyl)piperidin-4-yl)-1H-pyrazol-4-yl)-1H-pyrazolo[4,3-c]pyridin-3-yl)-2-(1-(4-fluorophenyl)ethoxy)phenyl)-1,1-difluoromethanesulfonamide], the Kd in assay [1] was 1 to 100 nM; in assay [2], 1 to 100 nM; in assay [5] it was greater than 10000 nM; in assay [6], greater than 10000 nM. In addition, the IC50 was 10 to 1000 nM in assay [3] and greater than 10000 nM in assay [4].

For the molecule `Nc1n[nH]c2nccc(-c3ccc(NS(=O)(=O)C(F)F)c(OCc4ccc(F)cc4)c3)c12` [Compound 66, N-(4-(3-Amino-1H-pyrazolo[3,4-b]pyridin-4-yl)-2-((4-fluorophenyl)methoxy)phenyl)-1,1-difluoromethanesulfonamide], the Kd was 1 to 100 nM in assay [1], less than 1 nM in assay [2], greater than 10000 nM in assay [5] and greater than 10000 nM in assay [6].

`Nc1n[nH]c2ncnc(-c3ccc(NS(=O)(=O)C(F)F)c(OCc4ccc(F)cc4)c3)c12` [Compound 69, N-(4-(3-Amino-1H-pyrazolo[3,4-d]pyrimidin-4-yl)-2-((4-fluorophenyl)methoxy)phenyl)-1,1-difluoromethanesulfonamide]: the Kd is 1 to 100 nM in assay [1], less than 1 nM in assay [2], greater than 10000 nM in assay [5] and greater than 10000 nM in assay [6].

With `Cc1cc(-c2ccc(NS(=O)(=O)C(F)F)c(OCc3ccc(F)cc3)c2)c2c(N)n[nH]c2n1` [Compound 70, N-(4-(3-Amino-6-methyl-1H-pyrazolo[3,4-b]pyridin-4-yl)-2-((4-fluorophenyl)methoxy)phenyl)-1,1-difluoromethanesulfonamide], the Kd is 1 to 100 nM in assay [1], less than 1 nM in assay [2], greater than 10000 nM in assay [5] and greater than 10000 nM in assay [6].

For `C[C@H](Oc1cc(-c2ccnc3[nH]nc(N)c23)ccc1NS(=O)(=O)C(F)F)c1ccc(F)cc1` [Compound 72, N-(4-(3-Amino-1H-pyrazolo[3,4-b]pyridin-4-yl)-2-((1S)-1-(4-fluorophenyl)ethoxy)phenyl)-1,1-difluoromethanesulfonamide], the Kd in assay [1] is 1 to 100 nM; in assay [2] it was less than 1 nM; in assay [5], greater than 10000 nM; in assay [6], greater than 10000 nM. Besides, the IC50 in assay [3] was 10 to 1000 nM; in assay [4] it was greater than 10000 nM.
